Values of other authors as cited in article PMC6906348 (Therapeutic Advances in Medical Oncology, 2019).
Where two headings read alike, the source gives them in different places.

Columns and labels:
[1] = system: patients with MET-high HCC; settings: MET-high HCC defined by IHC ⩾2+ in ⩾50% of tumor cells; cited from earlier work
[2] = system: Asian patients with advanced HCC; settings: cited from earlier work
[3] = system: patients with advanced HCC; settings: cited from earlier work
[4] = system: patients with unresectable advanced HCC; settings: cited from earlier work
[5] = system: patients with unresectable advanced HCC; settings: cited from earlier work; remark: listed apart in the source
[6] = system: patients progressing on or after sorafenib treatment (HCC); settings: cited from earlier work

In the case of `O=C1NC(=O)[C@@H](c2cn3c4c(cccc24)CCC3)[C@@H]1c1c[nH]c2ccccc12` [tivantinib], the study outcome [1] is listed as “negative”.

In the case of `CN1CCC(COc2cnc(-c3cccc(Cn4nc(-c5cccc(C#N)c5)ccc4=O)c3)nc2)CC1` [tepotinib], the “MET-positive patients with partial responses” value ([2]; MET-positive defined as ⩾50% tumor IHC 2+/3+) is given as 2/7, the “patients with partial responses” value ([2]; unselected patients, 2/27) is given as 7.4% and the disease control rate ([2]; unselected patients) is given as 37%.

In the case of nivolumab, the overall response rate ([3]; all patients) is given as 20% and the overall response rate ([3]; sorafenib-treated patients) is given as 14%.

For `CNC(=O)c1cc(Oc2ccc(NC(=O)Nc3ccc(Cl)c(C(F)(F)F)c3)cc2)ccn1` [sorafenib], the “hazard ratio (HR), overall survival” value ([4]; sorafenib group versus placebo) is listed as 0.69, the overall response rate ([4]; versus 1% for placebo) is listed as 2% and the “median time to progression (TTP)” value ([4]; versus 2.8 months for placebo) is listed as 5.5 months. The median overall survival ([4]; versus 7.9 months for placebo) was 10.7 months, the disease control rate ([4]; versus 32% for placebo) was 43% and the “HR, overall survival” value ([5]; sorafenib group versus placebo) was 0.68. For the same compound, the median overall survival ([5]; versus 4.2 months for placebo) was 6.5 months.

For `CNC(=O)c1cc(Oc2ccc(NC(=O)Nc3ccc(Cl)c(C(F)(F)F)c3)c(F)c2)ccn1` [regorafenib], the overall response rate ([6]; versus 4% in the placebo arm) is given as 11% and the overall survival ([6]; versus 7.8 months for placebo) is given as 10.6 months.
